Results as given in patent publication US20230293529A1, “DOSING REGIMENS FOR N-((5-FLUORO-2,3-DIHYDROBENZOFURAN-4-YL)METHYL)-8-(2-METHYLPYRIDIN-3-YL)-[1,2,4]TRIAZOLO[4,3-C]PYRIMIDIN-5-AMINE, OR A PHARMACEUTICALLY ACCEPTABLE SALT THEREOF, FOR USE IN TREATING PRC2-MEDIATED DISEASES OR DISORDERS” (Novartis AG, priority 2020, published 2023).

Tests used:
[1] = test system: advanced malignancies (DLBCL, nasopharyngeal carcinoma, other advanced solid tumors); experiment: Antitumor activity, overall response rate (ORR) in subjects with advanced malignancies; format: in vivo, human; settings: local assessment per Cheson 2014, RECIST v1.1 and PCWG2
Excerpt: (§1) This study is a multicenter, open label, study to establish the maximum tolerated dose (MTD) and/or recommended phase 2 dose (RP2D) and to evaluate the safety, antitumor activity and pharmacokinetic (PK) profile of MAK683 (Compound (1) of MAK683 (Compound (1) in subjects with advanced malignancies such as Diffuse Large B cell Lymphoma (DLBCL), nasopharyngeal carcinoma (NPC) or other advanced solid tumors for whom no further effective standard treatment is available. The patients will be administered MAK683 single agent orally until they experience unacceptable toxicity, progressive disease and/or treatment discontinuation at the discretion of the investigator or patient or withdrawal of consent. The phase I part plans to enroll patients with relapsed/refractory DLBCL, advanced/ metastatic nasopharyngeal carcinoma with presence of p16/CDKN2A gene and other solid tumors including castration-resistant prostate cancer, gastric cancer, OCCC, sarcoma. All patients enrolled in this part of the study will receive escalating oral doses of MAK683 in fasted condition, unless significant GI toxicity is observed, in which case dosing with moderate-fat meals may be assessed. The starting dose and regimen for the MAK683 first-in-man clinical study is about 10 mg QD. […]

[2] = Safety, adverse events in Phase I/II study; format: in vivo; settings: patients with advanced malignancies, oral MAK683
Excerpt: as §1

[3] = test system: H3K27me3; experiment: Pharmacodynamic activity: H3K27me3 in tumor biopsies by H-score; format: in vivo, human; settings: paired baseline-Day 15 tumor biopsies; diffuse large B-cell lymphoma (n=4) or sarcoma (n=6)
Method: (§2) MAK683 was administered fasted once (QD) or twice daily (BID) on a continuous schedule in 28-day treatment cycles. The pharmacokinetic (PK) profile of MAK683 was assessed in sequential blood samples on Days 1, 8 and/or 15 of Cycles 1-6. MAK683 pharmacodynamic activity in Cycle 1, measured by change in H3K27me3, was evaluated in peripheral blood monocytes on Days 1, 8, and 15 by flow cytometry and in tumor biopsies at baseline and Day 15 by H-score.

[4] = test system: H3K27me3; experiment: Pharmacodynamic activity: change in H3K27me3 in peripheral blood monocytes by flow cytometry; format: in vivo, human
Method: as §2

[5] = Pharmacokinetic profile of MAK683 in sequential blood samples, Phase I/II study; format: in vivo, human
Excerpt: This study is a multicenter, open label, study to establish the maximum tolerated dose (MTD) and/or recommended phase 2 dose (RP2D) and to evaluate the safety, antitumor activity and pharmacokinetic (PK) profile of MAK683 (Compound (1) of MAK683 (Compound (1) in subjects with advanced malignancies such as Diffuse Large B cell Lymphoma (DLBCL), nasopharyngeal carcinoma (NPC) or other advanced solid tumors for whom no further effective standard treatment is available. The patients will be administered MAK683 single agent orally until they experience unacceptable toxicity, progressive disease and/or treatment discontinuation at the discretion of the investigator or patient or withdrawal of consent. The phase I part plans to enroll patients with relapsed/refractory DLBCL, advanced/ metastatic nasopharyngeal carcinoma with presence of p16/CDKN2A gene and other solid tumors including castration-resistant prostate cancer, gastric cancer, OCCC, sarcoma. All patients enrolled in this part of the study will receive escalating oral doses of MAK683 in fasted condition, unless significant GI toxicity is observed, in which case dosing with moderate-fat meals may be assessed. The starting dose and regimen for the MAK683 first-in-man clinical study is about 10 mg QD. Escalation will continue to about 20 mg, about 40 mg, about 80 mg, about 120 mg, about […], about […], about 240 mg, about 300 mg, about 500 mg or about 800 mg or until the MTD is reached or a RP2D is established based on emerging data.
as §2

## Cc1ncccc1-c1cnc(NCc2c(F)ccc3c2CCO3)n2cnnc12 [MAK683, N-((5-fluoro-2,3-dihydrobenzofuran-4-yl)methyl)-8-(2-methylpyridin-3-yl)-[1,2,4]triazolo[4,3-c]pyrimidin-5-amine]
[1]
  positive endpoint: improved overall response rate (ORR): met at least one of the above endpoints
[2]
  adverse events: mild to moderate and did not lead to discontinuation
[3]
  patients with H3K27me3 H-score reductions from baseline >40: 7/10
[4]; Cycle 1, Days 1, 8, 15, across doses
  H3K27me3/H3 ratio change from baseline in peripheral monocytes: substantial on-treatment reductions from baseline
[4]; peripheral monocytes
  Maximum percentage reduction of H3K27me3/H3 ratio, relation to exposure: proportional to cumulative MAK683 AUC
[5]; 800 mg QD
  PK exposure (Cmax and AUC) dose proportionality: over-proportional
[5]; 10-500 mg QD and 60-450 mg BID
  PK exposure (Cmax and AUC) dose proportionality: variable and broadly dose-proportional
[5]; after multiple doses
  accumulation after multiple doses (Racc): 0.8-2.3
[5]; human, blood, oral, across cohorts, unchanged after multiple doses, read-out: Apparent terminal half-life (geometric mean)
  half-life: 2.5 to 5.2 h
[5]; human, blood, patients, oral, fasted, 10-800 mg QD or 60-450 mg BID, read-out: median Tmax
  Tmax: ~1 h
[5]; patients, QD or BID continuous dosing
  Time to steady-state: ~3 days
